Measurements taken from patent publication US20150272934A1, “USE OF CSE INHIBITORS FOR THE TREATMENT OF CUTANEOUS INJURIES OR CONDITIONS AND SLEEP-RELATED BREATHING DISORDERS” (SOVA PHARMACEUTICALS, INC., priority 2012, published 2015).

Assays:
[1] = system: hypoxic ventilatory response; assay: Dose response to dl-propargylglycine (PAG) in the rat hypoxic ventilatory response (HVR) assay; format: in vivo, Sprague Dawley rats; details: for Increase in minute ventilation (VE) from normoxia to hypoxia: FiO2 21% to 10%
Description: Male Sprague Dawley rats weighing 343±17 g (Mean±SD); weight range 316-381 g, were obtained from Harlan Laboratories and maintained on a 12 hour light:dark cycle (6 am lights on) with food and water ad libitum.
DSI: Rat unrestrained whole body plethysmography chamber (˜8″ diameter plexiglass), ACQ 7700 Acquisition Interface, Validyne DP45 low range differential pressure transducers, Ponemah software.
dl-Propargyl Glycine (PAG) was obtained from Sigma (Cat #P7888; Lot#BCBD1765V) and solubilized in 0.9% NaCl. Drugs were prepared fresh on the day of use.
Test compounds were administered via the intraperitoneal route at a dose volume of 3 mUkg.
Animals were pre-habituated to the test environment on 3 separate 1-hour periods prior to the test day. Following administration of test compounds animals were placed inside the whole body plethysmography chamber. The animals were allowed to acclimate to the environment for 60 minutes while breathing a 21% O2 balance N2 gas mix. After acclimation, the following gas mix protocol was followed:
(§1) Cycles were designated to be the periods of both normoxia and hypoxia. Each experiment consisted of 3 cycles (or repeated sets) of the HVR to a normoxic-hypoxic shift. The cycles were 30 minutes in duration to allow for serial sampling from baseline and all 4 WBP test chambers. Each sampling period was of 4 minutes duration and was in a varying order but was always preceded by a 4 minute baseline. The sampling periods were calculated to allow for equilibration of the gas mixture in the WBP chamber. Switching of the multiplexer (MUX) line sampler system was achieved through use of a user defined program. The gas mixtures were likewise switched automatically using a user defined custom mix program and the Sable Systems/Alicat Multi Flow Controller utility.
Analysis of data was performed in GraphPad Prism (v5) using embedded 1-way Analysis of Variance (ANOVA) followed by Dunnett's or Tukey's MCT post hoc testing where appropriate. Dual data sets were analyzed using the Student's t-test. Bartlett's Equal Variance tests were performed on all data sets, however failure of equal variance was not considered to impinge the validity of the test.

[2] = system: deep partial thickness cutaneous burn injury, zone of stasis; assay: Comb burn model for cutaneous burn; format: in vivo, Sprague-Dawley rats; details: for Viability of zones of stasis/interspaces on gross examination (burn progression): L-propargylglycine 100 mg/kg IP Day 0, Compound 1 20 mg/kg PO once daily, 6-day time course, versus control animals; for Blinded photo grading of treated interspaces versus control interspaces: within 48-72 hours, less injured versus worse/the same scale
[3] = system: hypoxic ventilatory response; assay: Rat hypoxic ventilatory response (HVR) in sham and carotid sinus nerve (CSN) transection animals; format: in vivo, Sprague Dawley rats; details: 100 mg/kg L-PAG
Description: Male Sprague Dawley rats from Harlan Laboratories weighing 350±31 g (Mean±SD); were maintained on a 12 hour light:dark cycle (6 am lights on) with food and water ad libitum.
L-Propargyl Glycine (L-PAG) was solubilized in saline at 33.3 mg/ml.
Carotid sinus nerve (CSN) transaction—Under appropriate anesthesia the rat's neck is shaved and prepped for surgery with betadine solution. An incision is made in the throat area extending about 2 cm. The underlying musculature is incised to expose the carotid bifurcation on both sides. A silk suture is looped around the proximal external carotid and retracted laterally for control. […] The carotid sinus nerve is transected where it originates on the exposed part of the glossopharyngeal and ascends to the carotid bifurcation.
Animals were pre-habituated to the test environment on 2 separate 45 minute periods prior to the test day. Following administration of test compounds animals were placed inside the whole body plethysmography chamber. The animals were allowed to acclimate to the environment for 60 minutes while breathing a 21% O2 balance N2 gas mix. After acclimation, the following gas mix protocol was followed:
as §1, with “of 2” for “of 3”
Analysis of data was performed in GraphPad Prism (v5) using embedded 1-way Analysis of Variance (ANOVA) followed by Dunnett's or Tukey's MCT post hoc testing where appropriate. Bartlett's Equal Variance tests were performed on all data sets, however failure of equal variance was not considered to impinge the validity of the test.

[4] = Half-life of L-propargylglycine (statement in dosing rationale)
[5] = system: obstructive sleep apnea; details: twelve patients; cited from earlier work

## C#CCC(N)C(=O)O (racemic) [PAG, dl-Propargylglycine]
[1]; PAG 1 or 3 mg/kg IP
  Increase in minute ventilation (VE) from normoxia to hypoxia: not
[1]; PAG 10, 30 and 100 mg/kg, both normoxic and hypoxic conditions, p<0.05
  VH2O: significantly impacted
[1]; PAG 10, 30 and 100 mg/kg, compared to saline, p<0.05
  VE at 10% FiO2: significantly reduced
[1]; PAG 10, 30 or 100 mg/kg IP
  Increase in minute ventilation (VE) from normoxia to hypoxia: blunted
[1]; PAG 10 and 100 mg/kg, compared to saline, p<0.05
  VE at an FiO2 of 21%: reduced significantly
[1]; PAG 30 and 100 mg/kg IP, p<0.05 versus vehicle
  Slope of the hypoxic ventilatory response (ΔVE, HVR): significantly reduced
[1]; PAG below a dose of 10 mg/kg
  Slope of the hypoxic ventilatory response (ΔVE): no effect
[1]; normoxic conditions, PAG 10 and 100 mg/kg, p<0.05
  VO2: significantly decreased
[1]; rat, in vivo
  VCO2: no effect

## C#CC[C@H](N)C(=O)O [L-propargylglycine]
[2]
  Viability of zones of stasis/interspaces on gross examination (burn progression): maintain viability
  Blinded photo grading of treated interspaces versus control interspaces: less injured than controls
[2]; over time course, control animals showed a decrease in perfusion
  Perfusion in zones of stasis/interspace areas (LDI analysis): perfusion is maintained
[3]; CSN transection animals
  HVR (change in slope of minute ventilation): did not change
  Increase of minute ventilation (VE) when FiO2 changed from 21% to 10%: 22%
[3]; sham animals
  Increase of minute ventilation (VE) when FiO2 changed from 21% to 10%: 51%
[3]; sham animals, p<0.05
  HVR (change in slope of minute ventilation): significantly reduced
[4]
  half-life: very long

## CN1CCN2c3ncccc3Cc3ccccc3C2C1 (stereo not drawn) [mirtazapine]
[5]
  decrease in occurrence of apnea episodes: 50%
  decrease in sleep disruptions: 28%

## CN(N)c1nnn[nH]1 [Compound 1, 5-(1-methylhydrazinyl)-1H-tetrazole]
[2]
  Viability of zones of stasis/interspaces on gross examination (burn progression): maintain viability
  Blinded photo grading of treated interspaces versus control interspaces: less injured than controls
